Data on six molecules can be found in paper PMC5452965 (PeerJ, 2017).

Where two headings read alike, the source gives them in different places. Where only a bound is given, the exact number is not on record here.

Experiment [1] deals with actin filaments in Hela cells. Particulars: cited from earlier work.
Experiment [2] relates to U2OS cells. Particulars: MTT, 48 h; ref Wang et al. (2016a); cited from earlier work.
The test system of experiment [3] is Hela cells. Particulars: MTT, 48 h; ref Wang et al. (2016a); cited from earlier work.
Experiment [4] has as its system cellular actin filaments in actin-RFP Hela cells. Particulars: ref Wang et al. (2016a); cited from earlier work.
Experiment [5] relates to MCF-7 cells. Particulars: MTT, 72 h; ref Wang et al. (2016a); cited from earlier work.
Experiment [6] relates to mitotic spindles in Hela cells. Particulars: Hela metaphase cells, 24 h, IC50; ref Wang et al. (2016a); cited from earlier work.
Experiment [7] has as its system Hela cells. The conditions noted are these: 24 h, ref Wang et al. (2016a), cited from earlier work.
For experiment [8], the target named is T1, Porcine brain tubulin plus MAPs (Sus scrofa, UniProt P02550+P02554).
T1 construct: Porcine brain tubulin plus MAPs was prepared by two cycles of polymerization and depolymerization; from tissue; host or cells: porcine brain

The subject of experiment [9] is microtubule network in α-tubulin-GFP U2OS cells. Particulars: cited from earlier work.
Experiment [10] has as its system MCF-7 cells. The experiment is described as follows: MTT assay (cytotoxicity), MCF-7. Type of experiment: cell-based, human. As for the experimental part:
(§1) The anti-proliferative effects of cucurbitacins were assessed using MTT assay, as previously described ([Nurcahyanti & Wink, 2015]). In brief, cells (1 × 10^4) were seeded in 96-well plates and incubated with different concentrations of cucurbitacins for 48 h (Hela, U2OS) and 72 h (MCF-7). MTT solution was then added and incubated for 2 h. The plates were read at 570 nm after the addition of DMSO using Tecan infinite M200 Pro (Tecan, Crailsheim, Germany).
(§2) All experiments were done in triplicate, repeated three times. Data are presented as mean ± standard deviation (SD). Statistical comparison between controls and different treatments were performed by an unpaired student’s t test using Microsoft excel 2013 (Microsoft Corporation, Washington, USA). Significance was considered at p < 0.05.
A general note: Tetrazolium dyes change colour on reduction, which living cells bring about.

Experiment [11] relates to mitotic spindles in Hela cells. The experiment is described as follows: Immunofluorescence staining, mitotic spindles. Type of experiment: cell-based, human. The conditions noted are these: Hela metaphase cells, 24 h, IC50. As to the method:
The immunofluorescence staining was carried out as established in our laboratory ([Wang et al., 2016a]).

Experiment [12] has as its target T1, Porcine brain tubulin plus MAPs. In words: In vitro tubulin polymerization assay. It counts as biochemical. The conditions noted are these: for effect on tubulin assembly in vitro at 1 mM: Figure 4D. As to the method:
Porcine brain tubulin plus MAPs was prepared by two cycles of polymerization and depolymerization according to a standard protocol ([Gell et al., 2011]). In-vitro tubulin polymerization assays were carried out in PEM buffer (100 mM PIPES, 2 mM EGTA, 0.1 mM EDTA, 3 mM MgCl2, 1 mM ATP and 1 mM GTP, pH 6.85) by mixing 5.6 mg/ml tubulin-MAPs with different concentrations of cucurbitacins in 96-well plates at 37°C for 40 min. The rate and extent of the polymerization reaction were monitored by light scattering at 360 nm using Tecan infinite M200 Pro.
as §2

The test system of experiment [13] is microtubule network in α-tubulin-GFP U2OS cells. In words: Imaging of tubulin-GFP transfected U2OS cells. It counts as cell-based, human. Particulars: IC80 and IC50, 2-48 h. As for the experimental part:
Cells were imaged using a Keyence BZ-9000 microscope (Keyence; Neu-Isenburg, Germany) after incubation for 2 h, 4 h, 24 h and 48 h. The images were analyzed using BZ-II Analyzer software (version 2.1, Keyence; Neu-Isenburg, Germany).

In experiment [14] the test system is Hela cells. The experiment is described as follows: Cell cycle analysis (propidium iodide, flow cytometry). Type of experiment: cell-based, human. Particulars: 24 h. As to the method: Cell cycle analysis was carried out as established in our laboratory ([Su, Cheng & Wink, 2015]). Briefly, Hela cells (5 × 10^5) were seeded in 6-well-plates and treated with different concentrations of cucurbitacins for 24 h. Cells were then collected, centrifuged and fixed in 70% ice-cold ethanol for at least 8 h. After washing steps, cells were treated with 0.2 mg/ml RNase A for 30 min at 37 C and then stained with 0.1 mg/ml propidium iodide. Samples were analyzed using a FACScan flow cytometer (Becton Dickinson, Heidelberg, Germany). Data were analyzed using Cell Quest™ Pro software (Becton Dickinson) and Microsoft excel (Microsoft Corporation, Washington, USA).
(In general: In flow cytometry, cells or beads pass a laser one at a time.)

Experiment [15] has as its system Hela, MCF-7 and U2OS cells. The experiment is described as follows: MTT assay, summary over three cell lines. Type of experiment: cell-based. Particulars: Homo sapiens; range over Hela, MCF-7, U2OS and over the three cucurbitacins. As to the method:
as §1, §2

The test system of experiment [16] is Hela cells. The experiment is described as follows: MTT assay (cytotoxicity), Hela. It counts as cell-based, human. Particulars: 48 h; for IC80: 80% reduction of cell viability. As for the experimental part: as §1, §2
For experiment [17], the system named is U2OS cells. The experiment is described as follows: MTT assay (cytotoxicity), U2OS. It counts as cell-based, human. The conditions noted are these: 48 h. As to the method: as §1, §2
Where [18] appears, read: 1 h and 24 h, ref Wang et al. (2016a).

What is called IC80 is the point of the concentration-response curve where the effect stands at 80%. For orientation: IC50 means the point on the concentration scale where inhibition reaches its midpoint.

T1 sequence (P02550 whole entry): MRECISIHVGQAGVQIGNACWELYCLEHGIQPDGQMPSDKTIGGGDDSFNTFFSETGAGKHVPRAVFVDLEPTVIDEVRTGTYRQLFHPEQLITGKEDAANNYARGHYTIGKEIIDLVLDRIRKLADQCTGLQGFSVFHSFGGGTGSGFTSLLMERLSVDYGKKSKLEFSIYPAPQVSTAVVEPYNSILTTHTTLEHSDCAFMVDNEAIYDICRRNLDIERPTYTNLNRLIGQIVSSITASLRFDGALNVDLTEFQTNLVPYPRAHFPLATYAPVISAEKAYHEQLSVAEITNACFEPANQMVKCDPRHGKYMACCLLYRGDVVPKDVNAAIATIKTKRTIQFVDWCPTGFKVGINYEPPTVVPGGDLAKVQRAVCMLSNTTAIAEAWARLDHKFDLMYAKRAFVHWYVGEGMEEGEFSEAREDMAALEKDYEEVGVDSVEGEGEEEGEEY
T1 sequence (P02554 whole entry): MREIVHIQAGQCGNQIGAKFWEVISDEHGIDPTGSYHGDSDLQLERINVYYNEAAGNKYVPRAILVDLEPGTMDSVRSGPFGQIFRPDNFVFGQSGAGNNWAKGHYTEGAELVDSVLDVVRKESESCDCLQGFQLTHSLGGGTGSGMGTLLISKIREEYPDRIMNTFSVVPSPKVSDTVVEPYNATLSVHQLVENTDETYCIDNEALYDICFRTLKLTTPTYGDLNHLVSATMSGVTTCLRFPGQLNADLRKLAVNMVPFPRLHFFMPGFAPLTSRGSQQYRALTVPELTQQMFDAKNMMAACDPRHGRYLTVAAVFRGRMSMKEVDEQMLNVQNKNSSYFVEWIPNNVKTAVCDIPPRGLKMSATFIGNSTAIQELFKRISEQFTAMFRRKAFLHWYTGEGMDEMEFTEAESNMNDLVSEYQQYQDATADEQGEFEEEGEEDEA

For `COc1cc2c(c(OC)c1OC)-c1ccc(OC)c(=O)cc1[C@@H](NC(C)=O)CC2` [Colchicine, colchicine], the “effect on actin filaments (immunofluorescence)” value (from here on “effect on actin filaments”) in [1] (setting [18]) was “No apparent changes on actin filaments”. For the same molecule, the IC80 was 0.87 ± 1.46 µM in experiment [2], 0.027 ± 0.00748 µM in experiment [3] and 0.0799 ± 0.0409 µM in experiment [5]. Moreover, the “effect on cellular actin filaments (actin-RFP)” value (“effect … (actin-RFP)” below) in [4] was “No notable changes on actin filaments”. In addition, in experiment [6], the “effect on mitotic spindles” value is listed as “completely depolymerized spindle with the compacted chromosomes”. The G2/M population in [7] (0.1μM) is given as 89.66 ± 2.04%. In [7], the “effect on cell cycle” value was “dose-dependent G2/M cell cycle arrest”.
`C/C1=C/C(=O)O[C@@H]2C[C@@H](CC[C@H](C)/C=C\CC1)O[C@@](O)([C@@H]1CSC(=O)N1)C2` [Latrunculin B, latrunculin B]: in experiment [1] (setting [18]), the “effect on actin filaments” value was “actin cytoskeleton extensively disrupted”. In addition, the IC50 is 5.67 ± 0.59 µM in experiment [2]; 11.2 ± 1.27 µM in [3]; more than 1000 µM in experiment [8] (read-out: IC50, inhibition of tubulin polymerization in vitro; 5.6 mg/ml tubulin-MAPs, 37°C, 40 min; ref Wang et al. (2016a); cited from earlier work); 38.5 ± 1.7 µM in experiment [5]. For the same molecule, the IC80 in [2] is 37.2 ± 15.7 µM; in [3] it was 63.9 ± 5.68 µM; in experiment [5], 140 ± 6.58 µM. The “effect … (actin-RFP)” value in [4] is listed as “actin cytoskeleton significantly disrupted”. In addition, in experiment [9] (both concentrations (IC80, IC50), ref Wang et al. (2016a)), the “effect on cellular microtubule network” value is reported as “changed the cell morphology from stretching state into round state”. In addition, the “effect on mitotic spindles” value in experiment [6] was “did not alter mitotic spindles and chromosome arrangements”. Further, in [7], the “effect on cell cycle” value was “dose-dependent G2/M cell cycle arrest”.
On to `CC[C@]1(O)C[C@@H]2CN(CCc3c([nH]c4ccccc34)[C@@](C(=O)OC)(c3cc4c(cc3OC)N(C)[C@H]3[C@@](O)(C(=O)OC)[C@H](OC(C)=O)[C@]5(CC)C=CCN6CC[C@]43[C@@H]65)C2)C1` [Vinblastine, vinblastine], for which the “effect on actin filaments” value in experiment [1] (24 h, concentration of IC80, ref Wang et al. (2016a)) is “slight reduction of actin filament mass”. The IC50 is 0.00011 ± 7e-05 µM in experiment [2]; 2e-05 ± 1e-05 µM in [3]; 1.57 ± 0.34 µM in experiment [8] (5.6 mg/ml tubulin-MAPs, 37°C, 40 min; ref Wang et al. (2016a); read-out: IC50, inhibition of tubulin polymerization in vitro; cited from earlier work); 6e-05 ± 5e-05 µM in experiment [5]. Also, the IC80 in [2] was 1.15 ± 0.51 µM; in [3] it was 0.7 ± 0.34 µM; in experiment [5] it was 2.08 ± 0.92 µM. The “effect on phases of microtubule assembly (nucleation, growth, steady state)” value in experiment [8] (ref Wang et al. (2016a); cited from earlier work) was “inhibited the nucleation and growth phase during the assembly”. Moreover, the “effect … (actin-RFP)” value in experiment [4] is “No notable changes on actin filaments”. The “effect on cellular microtubule network” value in [9] (concentration of IC50, ref Wang et al. (2016a)) was “extensively depolymerized microtubules”; in [9] (concentration of IC80, ref Wang et al. (2016a)), “tubulin paracrystals were formed and dispersed through out the cytoplasm”. The “effect on mitotic spindles” value in experiment [6] is on record as “depolymerized bipolar spindles”. Besides, the G2/M population in [7] (10 nM) was 78.04 ± 14.78%. Further, in experiment [7], the “effect on cell cycle” value is given as “dose-dependent G2/M cell cycle arrest”.
Consider `CC(=O)OC(C)(C)/C=C/C(=O)[C@](C)(O)[C@H]1[C@H](O)C[C@@]2(C)[C@@H]3CC=C4[C@@H](C=C(O)C(=O)C4(C)C)[C@]3(C)C(=O)C[C@]12C` [Cucurbitacin E, cucurbitacin E], for which the IC50 in [10] (Homo sapiens, MCF7, 72 h) is 0.054 ± 0.00316 µM; in [12], 567 ± 113 µM; in [15], 0.00643 to 0.0647 µM; in [16] (Homo sapiens, HeLa) it was 0.00643 ± 0.00105 µM; in [17] (Homo sapiens, U2OS) it was 0.0151 ± 0.00451 µM. For the same molecule, the IC80 turned out to be 0.92 ± 0.2 µM in experiment [10] (Homo sapiens, MCF7, 72 h); 0.0151 ± 0.00267 µM in [16] (Homo sapiens, HeLa); 0.0263 ± 0.0185 µM in experiment [17] (Homo sapiens, U2OS). The “effect on mitotic spindles” value in experiment [11] was “disordered distribution of spindle array”. For the same molecule, the “effect on phases of microtubule assembly (nucleation, growth, steady state)” value in [12] is “did not affect the nucleation but inhibited the growth phase and steady state”. Besides, the “effect on cellular microtubule network” value in [13] is reported as “changed the morphology of microtubule network into half-stretching state after 2 h incubation then round state after 24 h incubation”. The “effect on cell cycle” value in experiment [14] is reported as “potential ability to arrest cell cycle at G2/M phase”. The same molecule came in with a G2/M population in experiment [14] (0.3μM) of 59.35 ± 5.69%.
For the molecule cucurbitacin B, the IC50 was determined as 0.0229 ± 0.00451 µM in [10] (72 h), 0.0122 ± 0.00142 µM in experiment [16] and 0.0171 ± 0.00455 µM in experiment [17]. Moreover, the IC80 in experiment [10] (72 h) is 0.0437 ± 0.0106 µM; in [16] it was 0.022 ± 0.00139 µM; in [17] it was 0.0281 ± 0.0152 µM. In addition, the “effect on mitotic spindles” value in experiment [11] is “disordered distribution of spindle array”. Further, the “effect on tubulin assembly in vitro” value in [12] is “did not affect the tubulin assembly in vitro”. In addition, the “effect on tubulin assembly in vitro at 1 mM” value in experiment [12] is on record as “did not affect the assembly”. Besides, the “effect on cellular microtubule network” value in [13] is reported as “changed the morphology of microtubule network into half-stretching state after 2 h incubation then round state after 24 h incubation”. Besides, the “effect on tubulin polymerization in vitro” value in [8] (same assay; ref Duangmano et al. (2012); cited from earlier work) is “did not affect tubulin polymerization in vitro”. Besides, the “effect on cell cycle” value in [14] was “potential ability to arrest cell cycle at G2/M phase”.
As to `CC(C)(O)/C=C/C(=O)[C@](C)(O)[C@H]1[C@H](O)C[C@@]2(C)[C@@H]3CC=C4[C@@H](C=C(O)C(=O)C4(C)C)[C@]3(C)C(=O)C[C@]12C` [Cucurbitacin I, cucurbitacin I], the IC50 in [10] (Homo sapiens, MCF7, 72 h) is 0.0647 ± 0.0143 µM; in experiment [12] it was more than 1000 µM; in experiment [15], 0.00643 to 0.0647 µM; in experiment [16] (Homo sapiens, HeLa), 0.0448 ± 0.00154 µM; in experiment [17] (Homo sapiens, U2OS), 0.0235 ± 0.0169 µM. The IC80 was 0.29 ± 0.08 µM in experiment [10] (Homo sapiens, MCF7, 72 h); 0.0555 ± 0.00363 µM in [16] (Homo sapiens, HeLa); 0.034 ± 0.0177 µM in experiment [17] (Homo sapiens, U2OS). The “effect on mitotic spindles” value in [11] was “multipolar spindles and chromosomes mis-segregation on the metaphase plate”. Moreover, the “effect on tubulin assembly in vitro” value in experiment [12] is reported as “did not affect the tubulin assembly in vitro”. Moreover, in [12], the “effect on tubulin assembly in vitro at 1 mM” value is “did not affect the assembly”. The “effect on cell cycle” value in experiment [14] was “potential ability to arrest cell cycle at G2/M phase”. The G2/M population in [14] (0.6μM) is given as 59.18 ± 7.2%.
